# Experimental data taken from article PMC5363837 (Circulation, 2017).
# Bridge positions count the residues as written; N and C are the ends. Ends that are not written are not given here. Peptide text beside a SMILES is read from it.
# T1: human apelin receptor (Homo sapiens, UniProt P35414)
# T1 sequence (P35414 1-380): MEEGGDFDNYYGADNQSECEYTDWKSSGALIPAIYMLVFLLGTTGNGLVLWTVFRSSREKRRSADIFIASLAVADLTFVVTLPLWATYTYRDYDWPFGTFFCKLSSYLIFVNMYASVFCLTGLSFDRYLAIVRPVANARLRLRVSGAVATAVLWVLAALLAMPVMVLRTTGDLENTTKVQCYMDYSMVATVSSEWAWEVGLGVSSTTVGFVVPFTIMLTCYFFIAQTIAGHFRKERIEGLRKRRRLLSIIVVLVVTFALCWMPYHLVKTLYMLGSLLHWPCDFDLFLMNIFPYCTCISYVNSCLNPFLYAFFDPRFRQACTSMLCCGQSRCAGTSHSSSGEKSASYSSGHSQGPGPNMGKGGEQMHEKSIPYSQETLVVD
# T2: human apelin receptor expressed in CHO-K1 cells (human, UniProt P35414 1-380)
# T2 sequence (looked up): T1 sequence (P35414 1-380)
# How the values were obtained:
# human apelin receptor [1] = target: T1, human apelin receptor; experiment: Competition binding in CHO-K1 cells expressing the human apelin receptor (Cerep); parameters: host or cells: CHO-K1
# Procedure: Comptetition Binding Experiments
# (§1) For structure activity studies competition binding experiments were conductedin triplicate in
# (§2) homogenate of pooled human LV from cardiom yopathy patients as previousl y described 1.
# (§3) Homogenate of human LV wa s incubat ed for 90 min with 0.1nmol/L [Glp 65,Nle75, T yr 77]
# (§4) (0.5pmol/ L-10μmol/L) ( n=3 each). Non- specific binding was defined using 1μmol/L
# (§5) Equilibrium was broken b y centrifugation (20,000g for 10 min, 4 °C). Pellets
# (§6) were washed with Tris-H Cl buffer (50 mmol/ L, pH 7.4, 4 °C), re-centrifuged and bound
# (§7) radioactivity in final pellets counted. Data from triplicate experiments wer e anal yz ed using th e
# (§8) iterative non-linear curve fitting programs EBDA and LIGAND (KELL package, Biosoft, UK)
# (§9) or GraphPad Prism6 and to derive values of affinit y (ex pressed as the –log 10 of the dissociation
# constant (pKi ±sem) ) and recepto r densit y (BM AX ± sem).The pK i and B M AX values for the thr ee
# human apelin receptor [2] = target: T1, human apelin receptor; experiment: Receptor internalization assay (DiscoveRx), U2OS cells; assay type: cell-based
# Text: (§10) Inhibition of cAMP accumulation, β-arrestin recruitment, and receptor internalization assays were used to determine values of potency (pD2 [–log10 EC50]) and maximum response (EMAX). pD2 values were compared by using 1-way ANOVA with Tukey multiple comparison.
# Responses measured in r elative light units were fitted to 4 parameter logistic
# concentration response curves in GraphPad Prism 6 (La J olla, CA, USA) and values of
# potenc y,pD 2 ( -log10 EC 50 (where EC 50 is the concentration producing half maximal response) ),
# and maximum response (EM AX ) w ere calculat ed fo r each compound.Data were subs equentl y
# Respon ses measured in relatve li ght units wer e fitted
# (§11) to 4 parameter logistic concentration response curves in GraphPad Prism 6 (La J olla, CA,
# (§12) USA) and values o f pD 2 ( -log10 EC 50) and maximum response (EM AX ) w er e calcul at ed for each
# (§13) used as the refer ence ago nists in each assa y.
# Internalisation a ssa ys w ere co nduct ed as previously des cribed1.U2OS cells artificially
# ex pressing the human ap elin recepto r wer e seeded in Cell Plating medium in 96 -well plates and
# incubated for 48 hours at 37 °C in 5% CO 2.
# the cells for 3 hours at 37 °C. This was followed b y incubation with the detection reagents fo r
# 90 minutes at room temperature and luminescen ce readin g .D at a were an al y s ed as described
# for the β -arrestin assa y .
# human apelin receptor [3] = target: T1, human apelin receptor; experiment: Inhibition of forskolin-induced cAMP accumulation (DiscoveRx), CHO-K1 cells; assay type: cell-based; parameters: host or cells: CHO-K1
# human apelin receptor [4] = target: T1, human apelin receptor; experiment: Competition binding of ELA-21 in normal and PAH human LV and RV homogenate; parameters: host or cells: CHO-K1; settings: pooled homogenate, mean±SEM, n=3
# Procedure: Experiments were conducted in homogenate of human ventricle or Chinese hamster ovary (CHO)-K1 cells expressing the human apelin receptor.
# To investigate whether the affinit y of ELA peptides or the density of ELA binding sites is altered in human PAH competition binding experiments were repeated as described above using ELA-21 as the com peting li gand in LV and RV from pooled homogenate from six patients transplanted for PAH and LV and RV from six normal hearts as controls. Datafrom triplicate experiments were anal yzed usin g the iter ative non -linear curve fitting programs EBDA and LIGAND (KELL package, Biosoft, UK) to determine values of affinity (K D) and recepto r densit y (B M AX ). Values were compared for LV and RV between P AH and controls using Student’s 2- tailed t -test. […]
# human apelin receptor [5] = target: T1, human apelin receptor; experiment: β-arrestin recruitment assay (DiscoveRx), CHO-K1 cells; assay type: cell-based; parameters: host or cells: CHO-K1
# Text: as §10
# β-Arrestin ass a ys wer e conducted as previousl y described1.CHO- K1 cells artificially
# ex pressing the human ap elin recepto r wer e seeded in C ell P lating medium into 96-well plates
# 3μmol/L ) wer e diluted in Cell Plating mediumand added to the cells for 90 minutes at 37 °C..
# Detection reagents were then added fo ra 2- hour incubation at room temperature
# followed b y chemiluminescence r eadin g. Respon ses measured in relatve li ght units wer e fitted
# as §11, §12, §13
# human apelin receptor [6] = target: T1, human apelin receptor; experiment: Competition binding, [125I]apelin-13, homogenate of human left ventricle; settings: read-out: pKi in human LV (converted)
# Procedure: as §1, §2, §3
# [125 I] apelin-13 in assa y buffer (mmol/ L: Tris 50, MgCl2 5, pH 7.4, 22 °C), in the presence of
# as §4, §5, §6, §7, §8, §9
# [7] = target: T2, human apelin receptor expressed in …; experiment: cell-based or functional assay
# [8] = target: T2, human apelin receptor expressed in …; experiment: radioligand binding; competition binding in CHO-K1 cells expressing the human apelin receptor; settings: one partner purified
molecule,measurement,setting,value
"CSCC[C@@H]1NC(=O)[C@@H](N)CSSC[C@@H](C(=O)N[C@@H](CCCNC(=N)N)C(=O)N[C@H](C(=O)N2CCC[C@H]2C(=O)N[C@@H](Cc2ccccc2)C(=O)N2CCC[C@H]2C(=O)O)C(C)C)NC(=O)[C@H](Cc2c[nH]cn2)NC(=O)[C@H](CC(C)C)NC(=O)[C@@H]2CCCN2C1=O [cyclo[1–6]ELA-11] (HELM PEPTIDE1{C.M.P.L.H.C.R.V.P.F.P}$PEPTIDE1,PEPTIDE1,1:R3-6:R3$$$V2.0; N-terminus and C-terminus assumed)","fold drop in affinity versus ELA-32, ELA-21 and ELA-14",human apelin receptor [1],100 fold
CSCC[C@H](NC(=O)[C@@H]1CSSC[C@H](NC(=O)[C@H](CC(N)=O)NC(=O)[C@H](Cc2c[nH]cn2)NC(=O)[C@H](CCCCN)NC(=O)[C@H](CCCNC(=N)N)NC(=O)[C@@H](N)CC(C)C)C(=O)N[C@@H](CC(C)C)C(=O)N[C@@H](CCC(N)=O)C(=O)N[C@@H](CCCNC(=N)N)C(=O)N[C@@H](CCCNC(=N)N)C(=O)N1)C(=O)N1CCC[C@H]1C(=O)N[C@@H](CC(C)C)C(=O)N[C@@H](Cc1c[nH]cn1)C(=O)N[C@@H](CO)C(=O)N[C@@H](CCCNC(=N)N)C(=O)N[C@H](C(=O)N1CCC[C@H]1C(=O)N[C@@H](Cc1ccccc1)C(=O)N1CCC[C@H]1C(=O)O)C(C)C [ELA-21],Emax,human apelin receptor [2]; U2OS,96 ± 2%
same,EC50,"human apelin receptor [2]; U2OS cells, 3 hours, 37°C, mean±SEM, n=3-5 assays, 2-6 replicates, read-out: Internalization pD2 (converted)",0.282 nM
same,Emax,human apelin receptor [3]; CHO-K1,101 ± 1%
same,EC50,human apelin receptor [3]; read-out: cAMP pD2 (converted),0.372 nM
same,Ki,"human apelin receptor [4]; PAH human left ventricle, read-out: pKi, LV PAH (converted)",0.347 nM
same,Ki,"human apelin receptor [4]; PAH human right ventricle, read-out: pKi, RV PAH (converted)",0.501 nM
same,Ki,"human apelin receptor [4]; normal human left ventricle, read-out: pKi, LV normal (converted)",0.49 nM
same,Ki,"human apelin receptor [4]; normal human right ventricle, read-out: pKi, RV normal (converted)",1.05 nM
same,Emax,human apelin receptor [5]; CHO-K1,102 ± 1%
same,EC50,human apelin receptor [5]; read-out: β-Arrestin pD2 (converted),0.132 nM
same,Ki,human apelin receptor [6],3.02 nM
CMPLHCRVPFP (disulfide 1-6) [cyclo[1–6]ELA-11],"cAMP assay, pD2 (-log10 EC50)",[7],9.42
same,"β-arrestin recruitment assay, pD2 (-log10 EC50)",[7],7.67
same,pKi,[8],7.27
